Results on 1 molecule are retold here after patent US20110257146A1, “Method of Treating Kcnq Related Disorders Using Organozinc Compounds” (The johns Hopkins University, priority 2006, published 2011).

Several values for one entry are separate records, joined by “and”; a condition that tells them apart may be missing. Equal values may be shown once. Entries after “also recorded” stand apart in the source; their conditions may differ.

Test [1] has as its system lymphocytic leukemia cells. The following applies: micromolar concentrations; cited from earlier work.
The target of test [2] is T1, KCNQ2 (Rattus norvegicus, UniProt O88943). The test is described as follows: Single channel outside-out patch recording of KCNQ2. Type of test: cell-based. Set-up: expressed in transfected cells; host or cells: CHO cells. How it is done:
For single channel recording procedure, outside-out patch recording was used. The pipettes had resistances of 7-15 MΩ when filled with the intracellular solution of the following composition (mM): KCl 145, MgCl2 1, EGTA 5, HEPES 10, MgATP 5 (pH 7.3). Extracellular solution contained (mM): NaCl 150, KCl 5, CaCl2 2, MgCl2 1, HEPES 10, glucose 10 (pH 7.4). Current and voltage were recorded using an Axopatch-200B amplifier, sample at 4 kHz and filtered at 200 Hz, and digitized using a DigiData 1322A with pClamp 9.2 software (Axon Instruments, Foster City, Calif.).
The open probability (Po) and single channel current (i) were calculated by fitting all-point histograms with single- or multi-Gaussian curves. The ratio of the area under the fitted ‘open’ Gaussian to the total area under the entire Gaussian was taken as Po, and the difference between the fitted “closed” and “open” peaks was taken as i, single channel conductance (γ) was calculated by the equation: γ=i/(V−V5).

A further test concerns the target T2, KCNQ4 (Homo sapiens, UniProt P56696).
T2 construct: expressed in transfected cells; host or cells: CHO cells
The test can be described thus: Whole-cell voltage clamp of CHO cells expressing KCNQ4. In kind it is cell-based. The following applies: 10 μM ZnPy, extracellular. How it is done:
Cell culture and transient transfection—Chinese Hamster Ovary (CHO) cells were grown in 50/50 DMEM/F12 (Cellgro) with 10% FBS (Gibco), 100 U/ml penicillin (Cellgro), 100 μg/ml streptomycin (Cellgro) and 2 mM L-glutamine (Gibco). At 24 hours before transfection, cells were split and plated in 60 mm dishes and were transfected with Lipofectamine2000™ reagent (Invitrogen) according to the manufacturer's instruction. At 24 hours after transfection, cells were split and re-plated onto coverslips coated with poly-L-lysine (Sigma). Plasmid expressing CD4 cDNA as a marker was cotransfected with the channel cDNAs of hKCNQ1 (from Dr. Michael Sanguinetti), hKCNQ4 (from Dr. Vitya Vardanyan), rKCNQ2, rKCNQ3, and hKCNQ5 (from Drs. David McKinnon, Mark Shapiro, and Thomas Jentsch). Prior to recording, anti-CD4 Dynabeads (Dynal. Biotech. Inc.) were added into the medium to allow for identification of the transfected cells. Stable lines expressing Kv2.1, hERG, and Kv4.2 were generated by standard protocols using pcDNA3.1 and maintained at complete medium supplemented with 500 μg/ml G418. […]
Electrophysiological Recording—Standard whole-cell recording was used. […] Current and voltage were recorded using an Axopatch-200A amplifier, filtered at 1 kHz and digitized using a DigiData 1322A with pClamp 9.2 software (Axon Instruments, Foster City, Calif.). […]

Test [3] deals with T1, KCNQ2. The test can be described thus: Non-radioactive rubidium efflux assay (KCNQ2 screen, HEK 293). Type of test: cell-based. More on the design: expressed in transfected cells. How it is done:
To identify compounds with agonistic activities for M currents, stable cell lines for both KCNQ2 and KCNQ2/3 were generated. Under a pre-calibrated condition of medium-level rubidium efflux responses, more than 20,000 small molecule compounds were screened at a concentration of 10 μM. The selected condition allowed for identification of both inhibitors and potentiators. Selected compounds either increased or decreased the rubidium responses by more than 15% when compared to the control. A subset of the compounds were selected and validated for both potency and specificity.
KCNQ2 screen—HEK 293 cells stably expressing rat KCNQ2 were resuspended in DMEM/F12 medium and plated at a density of 4×10^4/well in poly-L-Lysine coated 96-well plates. Cells were then incubated at 37° C. with 5% CO2 overnight. 30 μl/well DMEM/F12 medium containing 30 mM RbCl was added to the cells the next day, followed by incubation for an additional 3 hours. Cell plating and reagent dispensing were done using a Multidrop 384 dispenser (Thermo Electron Corporation).
Compound addition and Rb^+ efflux assay were programmed and performed on a Cybi-Well™ system and Tekbench liquid handling system (Tekcel Inc., Hopkinton, Mass.), respectively. […] Rb^+ concentrations in both supernatant and cell lysates were measured by atomic absorption spectrometry using an ICR8000 instrument (Aurora Biomed, Vancouver, Canada).

Test [4] is described as follows: Mouse model of severe focal ischemia. As to conditions: in vivo.
For the next test, the target named is T3, KCNQ2 (W236L) (Rattus norvegicus, UniProt O88943, W236L).
T3 construct: expressed in transfected cells
The test is described as follows: Whole-cell recording of KCNQ2 (W236L) mutant. In kind it is cell-based. The following applies: 2.5 μM ZnPy, −30 mV or +50 mV. How it is done:
FIG. 8. Differential modulatory sites on KCNQ channel by ZnPy and retigabine. A. Left Panel. Representative KCNQ2 current was recorded with intracellular pipet solution supplemented with 10 μM ZnPy. The overlapping external application of ZnPy is as shown. Right Panel. G-V curves at different indicated recording times (0 to 12 minutes) upon establishing stable seal are shown. The intracellular perfusion (with or without EGTA) was first calibrated by using compatible molecular weight dye. […] The levels of current potentiation at +50 mV and −30 mV were calculated by Idrug/Icontrol, and shown as indicated (n≧4, *p<0.001).
Mutagenesis—Starting from KCNQ cDNAs, the KCNQ2 point mutants were constructed by recombinant PCR and verified by sequencing.
Electrophysiological Recording—Standard whole-cell recording was used. Pipettes were pulled from borosilicate glass capillaries (TW150-4, World Precision Instruments, Sarasota, Fla.). When filled with the intracellular solution, the pipettes have resistances of […]. During the recording, constant perfusion of extracellular solution was maintained using a BPS perfusion system (ALA, Westbury, N.Y.). […] Current and voltage were recorded using an Axopatch-200A amplifier, filtered at 1 kHz and digitized using a DigiData 1322A with pClamp 9.2 software (Axon Instruments, Foster City, Calif.). […]

Regarding `S=c1ccccn1[O][Zn][O]n1ccccc1=S` [ZnPy, Zinc Pyrithione], the “anti-apoptotic effect in vitro” value in test [1] was “protected lymphocytic leukemia cells against colchicine-induced apoptosis”. Besides, the “single channel open probability (Po)” value at KCNQ2 [2] (0 mV, 10 μM ZnPy, control 0.13) was 0.77±0.06 and 0.77. Also, the “fitted unitary current amplitude” value on KCNQ2 [2] (0 mV, 10 μM ZnPy, control 0.51 pA) amounted to 0.52 pA. For the same molecule, on KCNQ2 [2] (10 μM ZnPy), the “fold increase in Po” value worked out at 5.9 fold. The molecule also had a single channel conductance at KCNQ2 [2] (in the presence or absence of ZnPy) of 6.6±0.15 pS. Further, the “effect on channel activity” value on KCNQ4 is listed as “potentiated”. Further, on KCNQ2 [3], the “elevation of KCNQ activity by rubidium efflux” value is reported as “unusual potency in elevating KCNQ activities”. In addition, the neuroprotection result in test [4] is “significantly decreasing brain infarct volume and neurological deficit”. For the same molecule, the “sensitivity of mutant to compound” value at KCNQ2 (W236L) was “comparable sensitivity to KCNQ2 wild type; also recorded: fully effective in potentiating”.
